As usually defined, the IC50 is the point on the concentration scale where inhibition reaches its midpoint.

Data on 13 molecules can be found in US20260207704A1, “STAPLED PEPTIDES AND METHODS THEREOF” (priority 2022, published 2026).

*1 amine or outer side, *2 acyl side, *3 side chain or, on linkers, in order; H or OH if unused. Bridges are numbered along the chain shown (N, C = ends). Primed or numbered codes have the meaning given here. [ ]: non-standard residue; d: D form. B5(4) = 2-amino-2-(pent-4-en-1-yl)hept-6-enoic acid, stapled through each of its two olefin groups with other olefin-containing amino acid residues, O=C(C(CCCC=[*:3])(CCCC=[*:4])N[*:1])[*:2]; PyrS2″ = (S)-3-amino-1-((pent-4-en-1-yloxy)carbonyl)pyrrolidine-3-carboxylic acid (olefin stapling residue), C=CCCCOC(=O)N1CC[C@@](N[*:1])(C(=O)[*:2])C1; 2F3MeF(3) = aromatic amino acid residue, Cc1cccc(C[C@H](N[*:1])C(=O)[*:2])c1F; Phe(3-COOH) = N[C@@H](Cc1cccc(C(=O)O)c1)C(=O)O; 2F3MeF = Cc1cccc(C[C@H](N[*:1])C(=O)[*:2])c1F; Bta = N[C@@H](Cc1csc2ccccc12)C(=O)O; αAllylPro = C=CC[C@@]1(C(=O)O)CCCN1; BztA = aromatic amino acid residue; 4mampiperidine = not defined here; tBuAla = CC(C)(C)C[C@H](N)C(=O)O; 3Thi = N[C@@H](Cc1ccsc1)C(=O)O; Cha = N[C@@H](CC1CCCCC1)C(=O)O; PyrS2(4) = not defined here; GlnR = not defined here; PL3 = not defined here; B5 = not defined here

One assay concerns DLD1 reporter. Nature of the assay: reporter assay (DLD1 reporter assay). It is filed as cell-based. Particulars: read-out: DLD1 4% Abs IC50; DLD1 4%. An excerpt:
Various technologies can be utilized for characterizing and/or assessing provided technologies (e.g., agents (e.g., various peptides), compositions, methods, etc.) in accordance with the present disclosure. As described herein, in some embodiments, a useful technology is or comprises fluorescence polarization. In some embodiments, a useful technology assesses LogP or LogD. In some embodiments, a useful technology is or comprises a CHI LogD assay. In some embodiments, a useful technology assesses solubility. In some embodiments, a useful technology is or comprises NanoBRET. In some embodiments, a useful technology is or comprises a reporter assay (e.g., DLD1 reporter assay). In some embodiments, a useful technology is or comprises alphascreen. Certain useful protocols are described in the Examples. Those skilled in the art appreciate that suitable adjustments may be made to such protocols, e.g., according to specific conditions, agents, purposes, etc.
Various technologies can be utilized to assess technologies of the present disclosure. For example, in some embodiments, solubility, LogD, interactions with targets, etc. of various agents such as stapled peptides were assessed using technologies described in WO 2022/261257 (e.g., those in its Examples). In some embodiments, solubility, shake flask LogD, and binding to beta-catenin were assessed. In some embodiments, an assay for assessing interactions, e.g., with beta-catenin, was fluorescence polarization as described in WO 2022/261257. In some embodiments, an assay was Nano-BRET target engagement assay that assessed beta-catenin/TCF4 engagement as described in WO 2022/261257. In some embodiments, an assay was a reporter assay as reported in Example 4 of WO 2022/261257. In some embodiments, an assay was a COLO320DM proliferation assay as reported in Example 4 of WO 2022/261257.
(Reporter assays use an easily measured gene product as a stand-in for the process of interest.)

A further assay addresses beta-catenin (human). Nature of the assay: fluorescence polarization; bin >50 nM. (In general: Fluorescence polarisation rises when a labelled molecule tumbles more slowly, as on binding a larger partner.)

Sequence of beta-catenin (human) (B6V8E6 146-665 limits assumed): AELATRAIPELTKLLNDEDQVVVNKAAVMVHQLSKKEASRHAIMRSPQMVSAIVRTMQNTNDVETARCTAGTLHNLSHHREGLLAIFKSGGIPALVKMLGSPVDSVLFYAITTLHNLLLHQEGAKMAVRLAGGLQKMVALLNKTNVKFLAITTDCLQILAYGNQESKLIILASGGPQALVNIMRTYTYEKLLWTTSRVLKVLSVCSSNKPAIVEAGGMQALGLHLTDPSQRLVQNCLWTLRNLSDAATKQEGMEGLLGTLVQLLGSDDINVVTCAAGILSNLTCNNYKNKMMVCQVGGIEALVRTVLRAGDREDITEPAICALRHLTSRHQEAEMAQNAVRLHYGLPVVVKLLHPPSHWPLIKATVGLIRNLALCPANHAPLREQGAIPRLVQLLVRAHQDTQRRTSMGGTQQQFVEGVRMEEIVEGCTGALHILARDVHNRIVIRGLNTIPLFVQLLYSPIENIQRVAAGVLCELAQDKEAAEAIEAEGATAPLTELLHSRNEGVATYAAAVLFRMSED

Regarding `CC(=O)N1CCC[C@]12CC=CCCCC1(CCCC=CCCCOC(=O)N3CC[C@@]4(C3)NC(=O)[C@H](CCCCNC(=O)CC[C@@H](C(=O)N[C@@H](CC(C)C)C(N)=O)NC(=O)[C@H](Cc3csc5ccccc35)NC(=O)[C@H](Cc3ccccc3C(F)(F)F)NC4=O)NC(=O)[C@H](Cc3ccccc3)NC(=O)[C@H](C)NC(=O)[C@H](C)NC(=O)[C@H](Cc3cccc(C(=O)O)c3)NC(=O)[C@H](CC(=O)O)NC1=O)NC(=O)[C@H](CC1CCCCC1)NC(=O)[C@H](CC(=O)O)NC2=O` (single isomer, unassigned) [I-106, Ac-PL3-Asp-Cha-B5-Asp-3COOHF-Ala-Ala-Phe-Lys*3-PyrS2-2F3MeF-BztA-GlnR*3-Leu-NH2], the IC50 with DLD1 reporter was at most 1000 nM.
Take `CC(=O)N1CCC[C@]12CC=CCCCC1(CCCC=CCCCOC(=O)N3CC[C@@]4(C3)NC(=O)[C@H](CCCCNC(=O)CC[C@@H](C(=O)N[C@@H](CC(C)C)C(=O)N[C@@H](CO)C(N)=O)NC(=O)[C@H](Cc3csc5ccccc35)NC(=O)[C@H](Cc3ccccc3C(F)(F)F)NC4=O)NC(=O)[C@H](Cc3ccccc3)NC(=O)[C@H](C)NC(=O)C3(CC3)NC(=O)[C@H](Cc3cccc(C(=O)O)c3)NC(=O)[C@H](CC(=O)O)NC1=O)NC(=O)[C@H](CC(C)(C)C)NC(=O)[C@H](CC(=O)O)NC2=O` (relative stereo) [I-139, Ac-PL3-Asp-Npg-B5-Asp-3COOHF-Cpg-Ala-Phe-Lys*3-PyrS2-2F3MeF-BztA-GlnR*3-Leu-Ser-NH2]: in the assay with DLD1 reporter, the IC50 was at most 1000 nM.
In the case of `CC(=O)N1CCC[C@]12CC=CCCCC1(CCCC=CCCCOC(=O)N3CC[C@@]4(C3)NC(=O)[C@H](CCCCNC(=O)CC[C@@H](C(=O)N[C@@H](CC(C)C)C(=O)N[C@@H](CO)C(N)=O)NC(=O)[C@H](Cc3csc5ccccc35)NC(=O)[C@H](Cc3ccccc3C(F)(F)F)NC4=O)NC(=O)[C@H](Cc3ccccc3)NC(=O)[C@H](C)NC(=O)C3(CCC3)NC(=O)[C@H](Cc3cccc(C(=O)O)c3)NC(=O)[C@H](CC(=O)O)NC1=O)NC(=O)[C@H](CC(C)(C)C)NC(=O)[C@H](CC(=O)O)NC2=O` (relative stereo) [I-140, Ac-PL3-Asp-Npg-B5-Asp-3COOHF-Cbg-Ala-Phe-Lys*3-PyrS2-2F3MeF-BztA-GlnR*3-Leu-Ser-NH2], the IC50 with DLD1 reporter was at most 1000 nM.
On the same count and under the same terms, the same measure for `CC(=O)N1CCC[C@]12CC=CCCCC1(CCCC=CCCCOC(=O)N3CC[C@@]4(C3)NC(=O)[C@H](CCCCNC(=O)CC[C@@H](C(=O)N[C@@H](CC(C)C)C(=O)N[C@@H](CO)C(N)=O)NC(=O)[C@H](Cc3csc5ccccc35)NC(=O)[C@H](Cc3ccccc3C(F)(F)F)NC4=O)NC(=O)[C@H](Cc3ccccc3)NC(=O)[C@H](C)NC(=O)C(C)(C)NC(=O)[C@H](Cc3cccc(C(=O)O)c3)NC(=O)[C@H](CC(=O)O)NC1=O)NC(=O)[C@H](CC(C)(C)C)NC(=O)[C@H](CC(N)=O)NC2=O` (relative stereo) [I-144, Ac-PL3-Asn-Npg-B5-Asp-3COOHF-Aib-Ala-Phe-Lys*3-PyrS2-2F3MeF-BztA-GlnR*3-Leu-Ser-NH2]: 1000 to 5000 nM; for `CC(=O)N1CCC[C@]12CC=CCCCC1(CCCC=CCCCOC(=O)N3CC[C@@]4(C3)NC(=O)[C@H](CCCCNC(=O)CC[C@@H](C(=O)N[C@@H](C)C(N)=O)NC(=O)[C@H](Cc3csc5ccccc35)NC(=O)[C@H](Cc3ccccc3C(F)(F)F)NC4=O)NC(=O)[C@H](Cc3ccccc3)NC(=O)[C@H](C)NC(=O)C(C)(C)NC(=O)[C@H](CN(CC(=O)O)CC(F)(F)F)NC(=O)[C@H](CC(=O)O)NC1=O)NC(=O)[C@H](CC(C)(C)C)NC(=O)[C@H](CC(=O)O)NC2=O` (single isomer, unassigned) [I-121, Ac-PL3-Asp-Npg-B5-Asp-TfeGA-Aib-Ala-Phe-Lys*3-PyrS2-2F3MeF-BztA-GlnR*3-Ala-NH2]: 1000 to 5000 nM; for `CC(=O)N1CCC[C@]12CC=CCCCC1(CCCC=CCCCOC(=O)N3CC[C@@]4(C3)NC(=O)[C@H](CCCCNC(=O)CC[C@@H](C(=O)N[C@@H](CC(C)C)C(N)=O)NC(=O)[C@H](Cc3csc5ccccc35)NC(=O)[C@H](Cc3ccccc3C(F)(F)F)NC4=O)NC(=O)[C@H](Cc3ccccc3)NC(=O)[C@H](C)NC(=O)[C@H](CC(C)(C)C)NC(=O)[C@H](Cc3cccc(C(=O)O)c3)NC(=O)[C@H](CC(=O)O)NC1=O)NC(=O)[C@H](CC(C)(C)C)NC(=O)[C@H](CC(=O)O)NC2=O` (single isomer, unassigned) [I-109, Ac-PL3-Asp-Npg-B5-Asp-3COOHF-Npg-Ala-Phe-Lys*3-PyrS2-2F3MeF-BztA-GlnR*3-Leu-NH2]: 1000 to 5000 nM.
The same measure, in the same setting: the value for `CC(=O)N1CCC[C@]12CC=CCCCC1(CCCC=CCCCOC(=O)N3CC[C@@]4(C3)NC(=O)[C@H](CCCCNC(=O)CC[C@@H](C(=O)N[C@@H](CC(C)C)C(=O)N[C@@H](CO)C(N)=O)NC(=O)[C@H](Cc3csc5ccccc35)NC(=O)[C@H](Cc3ccccc3C(F)(F)F)NC4=O)NC(=O)[C@H](Cc3ccccc3)NC(=O)[C@H](C)NC(=O)[C@H](C)NC(=O)[C@H](Cc3cccc(C(=O)O)c3)NC(=O)[C@H](CC(=O)O)NC1=O)NC(=O)[C@H](CC(C)(C)C)NC(=O)[C@H](CC(N)=O)NC2=O` (relative stereo) [I-142, Ac-PL3-Asn-Npg-B5-Asp-3COOHF-Ala-Ala-Phe-Lys*3-PyrS2-2F3MeF-BztA-GlnR*3-Leu-Ser-NH2] was over 5000 nM.
`CC(=O)N1CCC[C@]12CC=CCCCC1(CCCC=CCCCOC(=O)N3CC[C@@]4(C3)NC(=O)[C@H](CCCCN(C(C)C)C(=O)CCC[C@@H](C(=O)N[C@@H](C)C(N)=O)NC(=O)[C@H](Cc3csc5ccccc35)NC(=O)[C@H](Cc3ccsc3)NC4=O)NC(=O)[C@H](Cc3ccccc3)NC(=O)[C@H](C)NC(=O)[C@H](C)NC(=O)[C@H](Cc3cccc(C(=O)O)c3)NC(=O)[C@H](CC(=O)O)NC1=O)NC(=O)[C@H](CC(C)(C)C)NC(=O)[C@H](CC(=O)O)NC2=O` (relative stereo) [I-187, Ac-PL3-Asp-Npg-B5-Asp-3COOHF-Ala-Ala-Phe-iPrLys*3-PyrS2-3Thi-BztA-hGlnR*3-Ala-NH2]: the IC50 in the assay with DLD1 reporter was over 5000 nM.
Turning to `CC(=O)N1CCC[C@]12CC=CCCCC1(CCCC=CCCCOC(=O)N3CC[C@@]4(C3)NC(=O)[C@H](CCCCNC(=O)CC[C@@H](C(=O)N[C@@H](C)C(N)=O)NC(=O)[C@H](Cc3csc5ccccc35)NC(=O)[C@H](Cc3ccsc3)NC4=O)NC(=O)[C@H](Cc3ccccc3)NC(=O)[C@H](C)NC(=O)C(C)(C)NC(=O)[C@H](Cc3cccc(C(=O)O)c3)NC(=O)[C@H](CC(=O)O)NC1=O)NC(=O)[C@H](CC(C)(C)C)NC(=O)[C@H]([C@H](C)O)NC2=O` (relative stereo) [I-163, Ac-PL3-aThr-Npg-B5-Asp-3COOHF-Aib-Ala-Phe-Lys*3-PyrS2-3Thi-BztA-GlnR*3-Ala-NH2], the IC50 in the assay on DLD1 reporter was over 5000 nM.

B1: I-90 (peptide)
peptide: Ac-[PL3]D[tBuAla][B5]N[Phe(3-COOH)]QAFK[PyrS2″][3Thi][BztA][GlnR]A-NH2
modifications: staple 1-4 (inferred); bridge 10-14; not fully specified (residue 10, bridges); printed as Ac-PL3-Asp-Npg-B5-Asn-3COOHF-Gln-Ala-Phe-Lys*3-PyrS2-3Thi-BztA-GlnR*3-Ala-NH2; reading uncertain; also: Lys10 and GlnR14 marked *3
The molecule B1 had an IC50 with beta-catenin (human) of under 200 nM.

B2: I-109 (peptide)
peptide: Ac-[PL3]D[tBuAla][B5]D[Phe(3-COOH)][tBuAla]AFK[PyrS2(4)][2F3MeF][Bta][GlnR]L-NH2
modifications: staple 1-4; bridge 10-14; reading uncertain; also: PyrS2 tied into a staple, partner not placed, printed as Ac-PL3-Asp-Npg-B5-Asp-3COOHF-Npg-Ala-Phe-Lys*3-PyrS2-2F3MeF-BztA-GlnR*3-Leu-NH2
Regarding B2, the IC50 with beta-catenin (human) was under 200 nM.

B3: I-110 (peptide)
peptide: Ac-[PL3]D[tBuAla][B5]D[Phe(3-COOH)][Cha]AFK[PyrS2(4)][2F3MeF][Bta][GlnR]L-NH2
modifications: staple 1-4; bridge 10-14; reading uncertain; also: PyrS2 tied into a staple, partner not placed, printed as Ac-PL3-Asp-Npg-B5-Asp-3COOHF-Cha-Ala-Phe-Lys*3-PyrS2-2F3MeF-BztA-GlnR*3-Leu-NH2
The molecule B3 displayed an IC50 in the assay with beta-catenin (human) of under 200 nM.

B4: I-95 (peptide)
peptide: Ac-[αAllylPro]D[tBuAla][B5(4)]D[Phe(3-COOH)][GlnR]AFL[PyrS2″][2F3MeF(3)][BztA][GlnR](4mampiperidine)A-NH2
modifications: staple 1-4 (inferred); not fully specified (bridges); printed as Ac-PL3-Asp-Npg-B5-Asp-3COOHF-GlnR-Ala-Phe-Leu-PyrS2-2F3MeF-BztA-[4mampiperidine]GlnR-Ala-NH2; reading uncertain
B4 yielded an IC50 in the assay with beta-catenin (human) of under 200 nM.
